Source: patent US20250380696A1, “METHOD FOR CONTROLLING UNDESIRED PLANTS AND PROMOTING GROWTH OF USEFUL PLANTS” (ISHIHARA SANGYO KAISHA, LTD., priority 2022, published 2025)

Columns and labels:
Format in all cases: in vivo
[1] = system: Italian ryegrass (Lolium multiflorum); assay: (3) Herbicidal effect test, pot, spray at 2.8 to 3.2 leaf stage; conditions: 7th day after spraying
From the text: (§1) [formula] • X: growth inhibition rate when treated with α (g/ha) of compound A, • Y: growth inhibition rate when treated with β (g/ha) of compound B, • E: growth inhibition rate expected when treated with α (g/ha) of compound A and β (g/ha) of compound B (expected value).
Upland soil was put in a 1/1,000,000 hectare pot, and seeds of Italian ryegrass (Lolium multiflorum) were sown. When the Italian ryegrass reached 2.8 to 3.2 leaf stage, a water-based suspension containing tiafenacil as the active ingredient, prepared by a conventional method for preparing a water-based suspension, and an emulsifiable concentrate containing S-metolachlor as the active ingredient (tradename: Dual Gold, manufactured by Syngenta), were diluted with water (in an amount corresponding to 200 liter per hectare) containing 0.5 vol % of an agricultural spreader (tradename: Destiny HC, manufactured by Winfield Solutions, LLC.) and sprayed by a small spray gun (model: W-101-132G, manufactured by ANEST IWATA Corporation). […] Further, the expected value of the growth inhibition rate (%) was calculated in accordance with the Colby's formula described in the above (1) herbicidal effect test, and the results are also shown in Table 3.

[2] = system: Italian ryegrass (Lolium multiflorum); assay: (4) Herbicidal effect test, pot, spray at 2.5 to 3.0 leaf stage; conditions: 7th day after spraying
From the text: as §1
Upland soil was put in a 1/1,000,000 hectare pot, and seeds of Italian ryegrass (Lolium multiflorum) were sown. When the Italian ryegrass reached 2.5 to 3.0 leaf stage, a water-based suspension containing tiafenacil as the active ingredient, prepared by a conventional method for preparing a water-based suspension, and a wettable powder containing metribuzin as the active ingredient (tradename: SENCOR wettable powder, manufactured by Bayer Crop Science) were diluted with water (in an amount corresponding to 200 liter per hectare) containing 0.5 vol % of an agricultural spreader (tradename: Destiny HC, manufactured by Winfield Solutions, LLC.) and sprayed by a small spray gun (model: W-101-132G, manufactured by ANEST IWATA Corporation).
On the 7th day after spraying, the state of growth of the Italian ryegrass was visually observed, and the growth inhibition rate (%) was obtained in accordance with the evaluation standards described in the above (1) herbicidal effect test, and the results are shown in Table 4. Further, the expected value of the growth inhibition rate (%) was calculated in accordance with the Colby's formula described in the above (1) herbicidal effect test, and the results are also shown in Table 4.

[3] = system: Italian ryegrass (Lolium multiflorum); assay: (6) Herbicidal effect test, pot, spray at 2.5 to 3.0 leaf stage; conditions: 14th day after spraying
From the text: as §1
Upland soil was put in a 1/1,000,000 hectare pot, and seeds of Italian ryegrass (Lolium multiflorum) were sown. When the Italian ryegrass reached 2.5 to 3.0 leaf stage, a water-based suspension containing tiafenacil as the active ingredient, prepared by a conventional method for preparing a water-based suspension, and water dispersible granules containing pyroxasulfone as the active ingredient (tradename: Sakura, manufactured by Bayer Crop Science) were diluted with water (in an amount corresponding to 200 liter per hectare) containing 0.5 vol % of an agricultural spreader (tradename: Destiny HC, manufactured by Winfield Solutions, LLC.) and sprayed by a small spray gun (model: W-101-132G, manufactured by ANEST IWATA Corporation). On the 14th day after spraying, the state of growth of the Italian ryegrass was visually observed, and the growth inhibition rate (%) was obtained in accordance with the evaluation standards described in the above (1) herbicidal effect test, and the results are shown in Table 6. Further, the expected value of the growth inhibition rate (%) was calculated in accordance with the Colby's formula described in the above (1) herbicidal effect test, and the results are also shown in Table 6.

CCc1cccc(C)c1N(C(=O)CCl)[C@@H](C)COC [S-metolachlor]
Growth inhibition rate (%) Measured value ([1]; Dose 15.6 g/ha): 0%

CSc1nnc(C(C)(C)C)c(=O)n1N [metribuzin]
inhibition at 9.38 g/ha ([2]; Lolium multiflorum, Dose 9.38 g/ha, read-out: Growth inhibition rate (%) Measured value): 0% | inhibition at 275 g/ha ([2]; Lolium multiflorum, Dose 275 g/ha, read-out: Growth inhibition rate (%) Measured value): 45% | inhibition at 550 g/ha ([2]; Lolium multiflorum, Dose 550 g/ha, read-out: Growth inhibition rate (%) Measured value): 57% | inhibition at 1100 g/ha ([2]; Lolium multiflorum, Dose 1100 g/ha, read-out: Growth inhibition rate (%) Measured value): 88%

Cn1nc(C(F)(F)F)c(CS(=O)(=O)C2=NOC(C)(C)C2)c1OC(F)F [pyroxasulfone]
inhibition at 15 g/ha ([3]; Lolium multiflorum, Dose 15 g/ha, read-out: Growth inhibition rate (%) Measured value): 0% | inhibition at 30 g/ha ([3]; Lolium multiflorum, Dose 30 g/ha, read-out: Growth inhibition rate (%) Measured value): 5% | inhibition at 125 g/ha ([3]; Lolium multiflorum, Dose 125 g/ha, read-out: Growth inhibition rate (%) Measured value): 35% | inhibition at 250 g/ha ([3]; Lolium multiflorum, Dose 250 g/ha, read-out: Growth inhibition rate (%) Measured value): 42% | inhibition at 500 g/ha ([3]; Lolium multiflorum, Dose 500 g/ha, read-out: Growth inhibition rate (%) Measured value): 67% | inhibition at 1000 g/ha ([3]; Lolium multiflorum, Dose 1000 g/ha, read-out: Growth inhibition rate (%) Measured value): 72%

COC(=O)CCNC(=O)C(C)Sc1cc(-n2c(=O)cc(C(F)(F)F)n(C)c2=O)c(F)cc1Cl (centres unmarked) [tiafenacil]
Growth inhibition rate (%) Measured value ([2]; Dose 6.25 g/ha): 30% | Growth inhibition rate (%) Measured value ([3]; Dose 12.5 g/ha): 63% | Growth inhibition rate (%) Measured value ([1]; Dose 12.5 g/ha): 53%
